Test results reported in ChEMBL document CHEMBL5550216, “Discovery of Triazolopyrimidine Derivatives as Selective P2X3 Receptor Antagonists Binding to an Unprecedented Allosteric Site as Evidenced by Cryo-Electron Microscopy” (J Med Chem, 2024).
pIC50: −log10 of the molar value.

Columns and labels:
[1] = Metabolic stability in human liver microsomes assessed as compound remaining at 100 uM preincubated for 10 mins followed by NADPH addition and measured after 30 mins by LC-MS/MS analysis; assay type: ADME, Microsome; settings: time 40 min, read-out: Stability
[2] = Metabolic stability in rat liver microsomes assessed as compound remaining at 100 uM preincubated for 10 mins followed by NADPH addition and measured after 30 mins by LC-MS/MS analysis; assay type: ADME, Microsome; settings: time 40 min, read-out: Stability
[3] = Metabolic stability in mouse liver microsomes assessed as compound remaining at 100 uM preincubated for 10 mins followed by NADPH addition and measured after 30 mins by LC-MS/MS analysis; assay type: ADME, Microsome; settings: time 40 min, read-out: Stability
[4] = Permeability of compound at 10 uM incubated for 4 hrs by PAMPA; assay type: ADME; settings: read-out: permeability
[5] = target: T1, P2X purinoceptor 1 (Homo sapiens, UniProt P51575); assay: Antagonist activity at human P2X1 receptor expressed in 1321N1 cells incubated for 30 mins in presence of ATP by Fluo-4 dye based microplate reader assay; assay type: cell-based
T1 sequence (P51575 whole entry): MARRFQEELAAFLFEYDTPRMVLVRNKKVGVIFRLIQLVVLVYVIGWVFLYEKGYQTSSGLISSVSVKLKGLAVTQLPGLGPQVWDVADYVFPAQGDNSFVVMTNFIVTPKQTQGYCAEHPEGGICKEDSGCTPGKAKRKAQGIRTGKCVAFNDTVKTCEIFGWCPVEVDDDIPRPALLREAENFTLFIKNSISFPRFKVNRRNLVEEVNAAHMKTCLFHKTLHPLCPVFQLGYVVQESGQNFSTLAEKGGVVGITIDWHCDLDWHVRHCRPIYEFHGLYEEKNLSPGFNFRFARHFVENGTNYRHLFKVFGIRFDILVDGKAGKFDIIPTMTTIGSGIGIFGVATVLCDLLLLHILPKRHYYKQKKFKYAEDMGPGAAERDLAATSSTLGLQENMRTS

[6] = target: T2, P2X purinoceptor 4 (Homo sapiens, UniProt Q99571); assay: Antagonist activity at human P2X4 receptor expressed in 1321N1 cells incubated for 30 mins in presence of ATP by Fluo-4 dye based microplate reader assay; assay type: cell-based
T2 sequence (Q99571 whole entry): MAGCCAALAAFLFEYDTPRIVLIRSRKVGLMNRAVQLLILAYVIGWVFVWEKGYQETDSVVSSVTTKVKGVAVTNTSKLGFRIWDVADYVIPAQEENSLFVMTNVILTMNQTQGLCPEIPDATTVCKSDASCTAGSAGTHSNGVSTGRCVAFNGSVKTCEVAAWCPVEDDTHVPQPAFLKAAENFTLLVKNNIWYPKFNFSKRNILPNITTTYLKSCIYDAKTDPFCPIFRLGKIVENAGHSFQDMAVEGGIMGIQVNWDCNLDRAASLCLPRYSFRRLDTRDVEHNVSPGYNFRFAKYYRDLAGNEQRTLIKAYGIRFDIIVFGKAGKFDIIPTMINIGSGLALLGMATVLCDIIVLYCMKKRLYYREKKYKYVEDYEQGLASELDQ

[7] = target: T3, P2X purinoceptor 7 (Homo sapiens, UniProt Q99572); assay: Antagonist activity at human P2X7 receptor expressed in 1321N1 cells incubated for 30 mins in presence of Bz-ATP by Fluo-4 dye based microplate reader assay; assay type: cell-based
T3 sequence (Q99572 whole entry): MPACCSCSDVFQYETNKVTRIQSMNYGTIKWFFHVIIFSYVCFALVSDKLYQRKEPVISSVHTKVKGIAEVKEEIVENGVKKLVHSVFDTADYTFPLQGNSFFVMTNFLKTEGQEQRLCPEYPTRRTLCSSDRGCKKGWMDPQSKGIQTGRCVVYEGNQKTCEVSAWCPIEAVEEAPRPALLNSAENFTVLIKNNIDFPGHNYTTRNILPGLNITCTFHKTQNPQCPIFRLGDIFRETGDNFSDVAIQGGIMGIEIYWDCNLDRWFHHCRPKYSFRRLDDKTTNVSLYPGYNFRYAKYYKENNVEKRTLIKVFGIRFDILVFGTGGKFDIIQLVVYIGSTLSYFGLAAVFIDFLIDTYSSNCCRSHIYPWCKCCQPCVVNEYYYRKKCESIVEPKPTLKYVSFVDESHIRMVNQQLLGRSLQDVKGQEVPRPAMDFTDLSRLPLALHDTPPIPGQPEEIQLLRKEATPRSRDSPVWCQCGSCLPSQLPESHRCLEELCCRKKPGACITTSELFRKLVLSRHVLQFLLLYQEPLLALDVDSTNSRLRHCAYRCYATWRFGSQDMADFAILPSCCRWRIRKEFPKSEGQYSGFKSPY

[8] = target: T4, P2X purinoceptor 3 (Homo sapiens, UniProt P56373); assay: Antagonist activity at human P2X3R expressed in HEK293 cells incubated for 18 hrs by Fluo-4 dye based microplate reader assay
T4 sequence (P56373 whole entry): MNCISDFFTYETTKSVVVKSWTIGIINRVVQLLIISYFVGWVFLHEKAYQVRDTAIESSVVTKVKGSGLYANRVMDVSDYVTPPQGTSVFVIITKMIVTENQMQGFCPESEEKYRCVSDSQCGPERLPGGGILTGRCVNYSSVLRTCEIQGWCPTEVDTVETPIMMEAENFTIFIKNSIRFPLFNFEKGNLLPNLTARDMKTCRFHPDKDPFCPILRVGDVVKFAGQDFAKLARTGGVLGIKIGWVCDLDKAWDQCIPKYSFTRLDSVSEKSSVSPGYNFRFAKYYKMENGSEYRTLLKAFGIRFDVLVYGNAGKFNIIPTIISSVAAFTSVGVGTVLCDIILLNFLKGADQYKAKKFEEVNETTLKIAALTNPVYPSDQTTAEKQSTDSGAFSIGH

[9] = target: T5, P2X2/P2X3 heterotrimeric receptor (Homo sapiens, UniProt P56373+Q9UBL9); assay: Antagonist activity at human P2X2/3R expressed in HEK293 cells incubated for 18 hrs by Fluo-4 dye based microplate reader assay
T5 sequence (Q9UBL9 whole entry): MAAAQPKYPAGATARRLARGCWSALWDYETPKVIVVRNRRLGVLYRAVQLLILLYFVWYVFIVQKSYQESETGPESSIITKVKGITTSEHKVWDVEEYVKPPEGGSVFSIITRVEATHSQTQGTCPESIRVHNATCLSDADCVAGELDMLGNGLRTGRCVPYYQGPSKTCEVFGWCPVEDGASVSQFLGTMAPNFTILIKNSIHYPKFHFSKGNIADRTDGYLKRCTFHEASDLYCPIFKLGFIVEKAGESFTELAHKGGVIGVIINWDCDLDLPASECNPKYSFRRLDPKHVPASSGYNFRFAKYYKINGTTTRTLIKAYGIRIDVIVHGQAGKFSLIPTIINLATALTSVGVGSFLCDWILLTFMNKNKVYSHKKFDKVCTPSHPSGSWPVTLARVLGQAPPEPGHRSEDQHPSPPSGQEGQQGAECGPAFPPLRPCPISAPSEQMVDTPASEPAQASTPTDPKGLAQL
T5 sequence (P56373 whole entry): T4 sequence (P56373 whole entry)

[10] = target: T5, P2X2/P2X3 heterotrimeric receptor; assay: Antagonist activity at human P2X2/3 receptor expressed in HEK293 cells preincubated for 30 mins followed by alpha, beta me-ATP addition and measured for 10 mins by Fluo-8 dye based FLIPR assay

Structure (SMILES)	remaining at 0.5 h, 100 µM [1]	remaining at 0.5 h, 100 µM [2]	remaining at 0.5 h, 100 µM [3]	Papp at 4 h, 10 µM [4]	also measured
CC(=O)N1CCN(c2cc(N[C@H](C)c3ccc4ccccc4c3)n3nc(C4CCCC4)nc3n2)CC1	33.2%	4.2%	15.2%		
CC(=O)N1CCN(c2cc(N[C@H](C)c3ccc4ccccc4c3)n3nc(C4CCC4)nc3n2)CC1	28.3%	0.2%	18%		
C[C@@H](Nc1cc(N2CCN(C(N)=O)CC2)nc2nc(C3CC3)nn12)c1ccc2ccccc2c1	50.2%	0.3%	50.6%	< 0.0185 ×10⁻⁶ cm/s	pIC50 [5]: 5.37; pIC50 [6]: < 5.00; pIC50 [7]: < 5.00
CNC(=O)c1cc(F)c(-c2nc3cc(C)ccn3c2CC2CCCN(C(=O)OC)C2)c(F)c1 (single isomer, unassigned)					pIC50 [8]: 7.81; pIC50 [9]: 5.30; pIC50 [10]: < 4.62
NC(=O)N1c2ccccc2C=Cc2ccccc21 [CARBAMAZEPINE]				5.41 ×10⁻⁶ cm/s	
CC(C)(C)NCC(O)COc1cccc2c1CC(O)C(O)C2 (stereo not drawn) [NADOLOL]				< 0.0185 ×10⁻⁶ cm/s	
